The results in this text go back to patent US20240368133A1, “Compounds for the Treatment of Pain, in Particular, Neuropathic Pain, and/or Other Diseases or Disorders that are Associated with AT2R and/or AT2R Mediated Signaling” (Confo Therapeutics N.V., priority 2021, published 2024).

SMILES strings stand for the structures.

Broadly, the IC50 is the concentration at which inhibition is half-maximal.

For one assay, the target named is human AT2R fused to Cb23 (Homo sapiens, UniProt P50052). Put plainly: Radioligand binding assay, displacement of 125I-[Sar1, Ile8]-Angiotensin II, hAT2R Cb23. The note with it: displacement of 125I-[Sar1, Ile8]-Angiotensin II, human AT2R fused to Cb23, HEK-293 cell membrane preparations; read-out: Binding affinity on hAT2R_Cb23 IC50. An outline of the steps: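 Membranes from HEK-293 cells expressing human AT2R fused to Cb23 were incubated with 0.05 nM 125I-[Sar1, Ile8]-Angiotensin II in 100 μL buffer (50 mM Tris, 5 mM MgCl2, 1 mM EDTA, 0.1% BSA, pH 7.4) for one hour at 25° C. Ligands were tested as eight-point dose-response curves in duplicate, with C21 and Angiotensin II as references.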
(In general: In a radioligand displacement assay an active substance lowers the binding of a labelled ligand.)

Another assay deals with human AT1R (Homo sapiens (Human), UniProt P30556). The assay can be described thus: Counterscreen radioligand binding assay, displacement of 125I-[Sar1, Ile8]-Angiotensin II, hAT1R WT. Particulars: for inhibition at 1 µM: read-out: % Displaced radioligand at 1 μM; for inhibition at 10 µM: read-out: % Displaced radioligand at 10 μM; for IC50: HEK-293 cell membranes, read-out: Binding affinity On hAT1R IC50. An outline of the steps: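 Compounds displaced 0.05 nM 125I-[Sar1, Ile8]-Ang II from human AT1R in HEK-293 membranes (1 h, 25° C; Tris/MgCl2/EDTA/BSA buffer, pH 7.4). Readout was filtration and scintillation counting, with non-specific binding set by 10 μM [Sar1]-Ang II. Values are % displacement at 1 μM and […], or IC50 from eight-point four-parameter fits.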
For orientation: A counterscreen serves to expose hits that act by an unwanted route or on another target.

Where [1] appears, read: 125I-[Sar1, Ile8]-Ang II, compound at 1 μM, semi-quantitative score.
The mark [2] stands for this setting: 125I-[Sar1, Ile8]-Ang II, compound at 10 μM, semi-quantitative score.

human AT1R, sequence (P30556 whole entry): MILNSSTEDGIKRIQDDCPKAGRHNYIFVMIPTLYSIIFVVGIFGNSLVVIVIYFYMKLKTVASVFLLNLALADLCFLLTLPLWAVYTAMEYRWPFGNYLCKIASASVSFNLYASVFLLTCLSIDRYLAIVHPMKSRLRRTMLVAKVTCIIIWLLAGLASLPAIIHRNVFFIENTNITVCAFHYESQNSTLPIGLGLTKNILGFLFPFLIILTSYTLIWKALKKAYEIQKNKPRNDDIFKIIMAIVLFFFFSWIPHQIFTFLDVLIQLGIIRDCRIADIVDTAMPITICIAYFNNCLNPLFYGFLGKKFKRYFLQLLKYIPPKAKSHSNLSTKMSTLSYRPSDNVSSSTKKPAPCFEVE
human AT2R fused to Cb23, sequence (P50052 whole entry, looked up, the tested form may be a part): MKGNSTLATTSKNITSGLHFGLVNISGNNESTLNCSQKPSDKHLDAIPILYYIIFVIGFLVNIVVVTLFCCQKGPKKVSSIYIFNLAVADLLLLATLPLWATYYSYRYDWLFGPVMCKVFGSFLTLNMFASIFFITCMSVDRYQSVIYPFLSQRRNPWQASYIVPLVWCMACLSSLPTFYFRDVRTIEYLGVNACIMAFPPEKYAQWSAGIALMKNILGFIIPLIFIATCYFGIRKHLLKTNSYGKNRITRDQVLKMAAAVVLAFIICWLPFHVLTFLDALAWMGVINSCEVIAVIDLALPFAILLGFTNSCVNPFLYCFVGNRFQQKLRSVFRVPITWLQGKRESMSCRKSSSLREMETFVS

Take `CCc1nc2ccc(N(Cc3ccccc3Cl)C(=O)c3cccs3)cc2c(=O)n1CC1CCN(c2ccccc2-c2nn[nH]n2)CC1` [Compound A-248, N-[(2-chlorophenyl)methyl]-N-[2-ethyl-4-oxo-3-[[1-[2-(2H-tetrazol-5-yl)phenyl]-4-piperidyl]methyl]quinazolin-6-yl]thiophene-2-carboxamide]: the IC50 on human AT2R fused to Cb23 amounted to 48 nM; on human AT1R, 40.1 µM. Further, the inhibition at 1 µM on human AT1R (setting [1]) is below 30%. In addition, the inhibition at 10 µM at human AT1R (setting [2]) was below 30%.

Regarding `CC(C)Cc1ccc(-c2nn[nH]n2)c(N2CCN(Cc3cc(=O)n4ccccc4n3)CC2)c1` [Compound A-76, 2-[[4-[5-isobutyl-2-(2H-tetrazol-5-yl)-phenyl]piperazin-1-yl]methyl]pyrido-[1,2-a]pyrimidin-4-one], the IC50 on human AT2R fused to Cb23 stood at 5570 nM. The inhibition at 1 µM on human AT1R (setting [1]) is below 30%. Further, the inhibition at 10 µM on human AT1R (setting [2]) was below 30%.

`CC(C)Oc1cc(F)c(-c2nn[nH]n2)c(N2CCN(Cc3nc4ccccc4s3)CC2)c1` [Compound A-118, 2-[[4-[3-fluoro-5-isopropoxy-2-(2H-tetrazol-5-yl)phen-yl]piperazin-1-yl]-methyl]-1,3-benzo-thiazole]: the results for the half-inhibitory concentration (IC50) on human AT2R fused to Cb23 and at human AT1R were 1000 nM and 41.5 µM, respectively. Further, the inhibition at 1 µM on human AT1R (setting [1]) is below 30%. On human AT1R (setting [2]), the inhibition at 10 µM is below 30%.

In the case of `CC(C)Oc1cc(C2CC2)c(-c2nn[nH]n2)c(N2CCN(Cc3nc4ccccc4s3)CC2)c1` [Compound A-122, 2-[[4-[3-cycloprop-yl-5-isopropoxy-2-(2H-tetrazol-5-yl)-phenyl]piperazin-1-yl]methyl]-1,3-benzothiazole], the IC50 at human AT2R fused to Cb23 was 293 nM. The inhibition at 1 µM at human AT1R (setting [1]) was below 30%. For the same compound, the inhibition at 10 µM on human AT1R (setting [2]) is below 30%.

As for `COc1cccnc1CN1CCN(c2cc(CC(C)C)cc(F)c2-c2nn[nH]n2)CC1` [Compound A-198, 1-[3-fluoro-5-isobutyl-2-(2H-tetrazol-5-yl)phen-yl]-4-[(3-methoxy-2-pyridyl)meth-yl]piperazine], the IC50 at human AT2R fused to Cb23 was determined as 1820 nM. The inhibition at 1 µM at human AT1R (setting [1]) was below 30%. Besides, the inhibition at 10 µM on human AT1R (setting [2]) was below 30%.

As for `COc1cc(F)c(-c2nn[nH]n2)c(N2CCN(Cc3nc4ccccc4s3)CC2)c1` [Compound A-116, 2-[[4-[3-fluoro-5-methoxy-2-(2H-tetrazol-5-yl)phen-yl]piperazin-1-yl]-methyl]-1,3-benzo-thiazole], the IC50 at human AT2R fused to Cb23 came out at 8980 nM; on human AT1R it was 18.1 µM. Further, on human AT1R (setting [1]), the inhibition at 1 µM is below 30%. Further, the inhibition at 10 µM at human AT1R (setting [2]) lay within 30 to 50%.

As to `c1ccc(N2CCN(Cc3nc4ccccc4s3)CC2)c(-c2nn[nH]n2)c1` [Compound A-05, 2-[[4-[2-(2H-tetrazol-5-yl)phen-yl]piperazin-1-yl]-methyl]-1,3-benzo-thiazole], the IC50 amounted to 34100 nM at human AT2R fused to Cb23 and 49.9 µM on human AT1R. Also, the inhibition at 1 µM on human AT1R (setting [1]) was below 30%. The inhibition at 10 µM at human AT1R (setting [2]) is below 30%.

Consider `Cc1cnc(C(C)N2CCN(c3cc(CC(C)C)cc(F)c3-c3nn[nH]n3)CC2)s1` (stereo not drawn) [Compound A-225, 2-[1-[4-[3-fluoro-5-isobutyl-2-(2H-tetrazol-5-yl)phen-yl]piperazin-1-yl]-ethyl]-5-methyl-thiazole], for which, at human AT2R fused to Cb23, the IC50 came to 54.1 nM. Further, at human AT1R (setting [1]), the “% Displaced radioligand at 1 μM” value is reported as “* (* <30%)”. The “% Displaced radioligand at 10 μM” value on human AT1R (setting [2]) was “* (* <30%)”.

Regarding `CCCCOC(=O)NS(=O)(=O)c1ccc(C)cc1N1CCN(Cc2nc3ccccc3n2C)CC1` [Compound A-11, butyl N-[4-methyl-2-[4-[(1-methylbenzimidazol-2-yl)methyl]piperazin-1-yl]phenyl]sulfonylcarbamate], the IC50 at human AT2R fused to Cb23 was 959 nM; on human AT1R it was 37.7 µM. Further, at human AT1R (setting [1]), the inhibition at 1 µM was below 30%. The inhibition at 10 µM on human AT1R (setting [2]) was below 30%.

`CC(C)Cc1cc(N2CCN(Cc3nc4ccccc4c(=O)[nH]3)CC2)c(-c2nn[nH]n2)cc1F` [Compound A-153, 2-[[4-[4-fluoro-5-isobutyl-2-(2H-tetrazol-5-yl)phen-yl]piperazin-1-yl]-methyl]-3H-quin-azolin-4-one]: the IC50 at human AT2R fused to Cb23 came to 8420 nM. The inhibition at 1 µM on human AT1R (setting [1]) is below 30%. Besides, on human AT1R (setting [2]), the inhibition at 10 µM is below 30%.

As to `Cc1cnc(CN2CCN(c3c(-c4nn[nH]n4)ccc(CC(C)C)c3F)CC2)s1` [Compound A-219, 2-[[4-[2-fluoro-3-isobutyl-6-(2H-tetrazol-5-yl)phen-yl]piperazin-1-yl]-methyl]-5-methyl-thiazole], the concentration for half-maximal inhibition (IC50) at human AT2R fused to Cb23 stood at 681 nM; on human AT1R it was 55.2 µM. For the same compound, on human AT1R (setting [1]), the inhibition at 1 µM is below 30%. Moreover, the inhibition at 10 µM on human AT1R (setting [2]) was below 30%.

Turning to `CNc1cc(CC(C)C)cc(N2CCN(Cc3cccnn3)CC2)c1-c1nn[nH]n1` [Compound A-171, 5-isobutyl-N-meth-yl-3-[4-(pyridazin-3-ylmethyl)piper-azin-1-yl]-2-(2H-tetrazol-5-yl)aniline], the IC50 on human AT2R fused to Cb23 was found to be 15.8 nM. In addition, on human AT1R (setting [1]), the inhibition at 1 µM is below 30%. The inhibition at 10 µM on human AT1R (setting [2]) is below 30%.

Turning to `CC(C)Cc1ccc(-c2nn[nH]n2)c(N2CCN(Cc3cccnn3)[C@@H](C)C2)c1F` [Compound A-176, 3-[[(2S)-4-[2-fluoro-3-isobutyl-6-(2H-tetrazol-5-yl)phenyl]-2-methyl-piperazin-1-yl]methyl]pyridazine], the IC50 at human AT2R fused to Cb23 was found to be 28.7 nM. The inhibition at 1 µM at human AT1R (setting [1]) was below 30%. For the same compound, the inhibition at 10 µM on human AT1R (setting [2]) was below 30%.

In the case of `CC(C)Cc1ccc(-c2nn[nH]n2)c(N2CCN(Cc3cccnn3)CC2)c1F` [Compound A-165, 3-[[4-[2-fluoro-3-isobutyl-6-(2H-tetrazol-5-yl)phen-yl]piperazin-1-yl]-methyl]pyridazine], on human AT2R fused to Cb23, the IC50 amounted to 681 nM. The inhibition at 1 µM on human AT1R (setting [1]) was below 30%. For the same compound, the inhibition at 10 µM on human AT1R (setting [2]) was below 30%.

In the case of `CC(C)Oc1cc(C2CC2)c(-c2nn[nH]n2)c(N2CCN(Cc3nc4ccccc4c(=O)[nH]3)CC2)c1` [Compound A-152], the IC50 at human AT2R fused to Cb23 amounted to 2870 nM. The inhibition at 1 µM at human AT1R (setting [1]) was below 30%. Moreover, the inhibition at 10 µM at human AT1R (setting [2]) was below 30%.

For `Cc1csc2nc(CN3CCN(c4cc(CC(C)C)ccc4-c4nn[nH]n4)CC3)cc(=O)n12` [Compound A-75, 7-[[4-[5-isobutyl-2-(2H-tetrazol-5-yl)phenyl]piperazin-1-yl]methyl]-3-methyl-thiazolo[3,2-a]pyrimidin-5-one], the IC50 at human AT2R fused to Cb23 was found to be 5920 nM. Besides, on human AT1R (setting [1]), the inhibition at 1 µM was below 30%. For the same compound, the inhibition at 10 µM at human AT1R (setting [2]) is below 30%.

`CC(C)Cc1cc(F)c(-c2nn[nH]n2)c(N2CCN(Cc3nc4ccccc4s3)CC2)c1` [Compound A-132, 2-[[4-[3-fluoro-5-isobutyl-2-(2H-tetrazol-5-yl)phen-yl]piperazin-1-yl]-methyl]-1,3-benzo-thiazole]: the IC50 at human AT2R fused to Cb23 came to 355 nM. Besides, on human AT1R (setting [1]), the inhibition at 1 µM is below 30%. Further, at human AT1R (setting [2]), the inhibition at 10 µM was below 30%.

As to `CNc1cc(-c2nn[nH]n2)c(N2CCN(Cc3nc4ccccc4s3)CC2)cc1CC(C)C` [Compound A-139, 4-[4-(1,3-benzothi-azol-2-ylmethyl)-piperazin-1-yl]-2-isobutyl-N-methyl-5-(2H-tetrazol-5-yl)aniline], the IC50 at human AT2R fused to Cb23 was found to be 4960 nM. In addition, at human AT1R (setting [1]), the inhibition at 1 µM is below 30%. At human AT1R (setting [2]), the inhibition at 10 µM is below 30%.
